The structures appear in SMILES notation.

This test deals with T1, P2X7 (UniProt Q99572).
T1 sequence (Q99572 1-595): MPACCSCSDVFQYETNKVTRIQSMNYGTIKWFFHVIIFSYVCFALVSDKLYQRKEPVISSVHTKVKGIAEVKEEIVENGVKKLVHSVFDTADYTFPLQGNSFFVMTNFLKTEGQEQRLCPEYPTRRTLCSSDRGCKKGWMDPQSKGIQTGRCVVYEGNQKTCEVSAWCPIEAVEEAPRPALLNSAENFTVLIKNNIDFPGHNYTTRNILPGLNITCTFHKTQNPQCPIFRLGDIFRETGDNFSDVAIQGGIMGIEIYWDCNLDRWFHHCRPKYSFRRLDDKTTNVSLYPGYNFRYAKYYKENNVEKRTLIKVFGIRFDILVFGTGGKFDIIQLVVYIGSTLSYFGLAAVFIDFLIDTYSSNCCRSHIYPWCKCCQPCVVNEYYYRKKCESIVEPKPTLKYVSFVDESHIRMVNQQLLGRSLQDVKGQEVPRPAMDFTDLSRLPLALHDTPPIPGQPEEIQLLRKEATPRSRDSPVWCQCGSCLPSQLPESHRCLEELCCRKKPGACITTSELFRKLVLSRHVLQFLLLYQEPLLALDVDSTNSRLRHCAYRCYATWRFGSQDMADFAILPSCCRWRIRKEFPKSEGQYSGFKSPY
Kind of test: P2X7 activity of Table 1. The format is cell-based. Conditions: pIC50 values for P2X7. In short, it runs like this: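 FLIPR calcium flux with fluo-3 in 1321N1 cells expressing human P2X7 and HEK293 cells expressing rat P2X7, in HBSS with 2 mM CaCl2 and 2.5 mM probenecid. Antagonist pre-incubated 20 min at room temperature, then BzATP added (100 μM human, 5 μM rat). Peak response over 5 min normalised to 5 μM ionomycin.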

For orientation: pIC50 means the negative decadic logarithm of the IC50, by convention in mol/L. A higher pIC50 goes with a small IC50. In turn, `COC[C@H](O)Cn1nc(-c2ccc(C)c(NC(=O)C3=CNC(=O)C[C@H]3c3ccc(F)cc3)c2)cc1C` [Compound 75, (S)-4-(4-Fluoro-phenyl)-6-oxo-1,4,5,6-tetrahydro-pyridine-3-carboxylic acid {5-[1-((R)-2-hydroxy-3-methoxy-propyl)-5-methyl-1H-pyrazol-3-yl]-2-methyl-phenyl}-amide] had a pIC50 of 7.72. Turning to `Cc1cc(-c2ccc(C)c(NC(=O)C3=CNC(=O)C[C@H]3c3ccc(F)cc3)c2)on1` [Compound 26, (S)-4-(4-Fluoro-phenyl)-6-oxo-1,4,5,6-tetrahydro-pyridine-3-carboxylic acid [2-methyl-5-(3-methyl-isoxazol-5-yl)-phenyl]-amide], the pIC50 was determined as 7.265.

Regarding `Cc1ccc(-c2ccncc2)cc1NC(=O)C1=CNC(=O)C[C@H]1c1ccc(F)cc1` [Compound 59, (S)-4-(4-Fluoro-phenyl)-6-oxo-1,4,5,6-tetrahydro-pyridine-3-carboxylic acid (2-methyl-5-pyridin-4-yl-phenyl)-amide], the pIC50 is on record as 7.22. Consider `COC[C@H](O)Cn1c(=O)cnn(-c2ccc(C)c(NC(=O)C3=CN(C)C(=O)C[C@H]3c3ccc(F)cc3)c2)c1=O` [Compound 77, (S)-4-(4-Fluoro-phenyl)-1-methyl-6-oxo-1,4,5,6-tetrahydro-pyridine-3-carboxylic acid {5-[4-((R)-2-hydroxy-3-methoxy-propyl)-3,5-dioxo-4,5-dihydro-3H-[1,2,4]triazin-2-yl]-2-methyl-phenyl}-amide], for which the pIC50 came to 7.5367. In the case of `Cc1ccc(-n2ccc(=O)n(C)c2=O)cc1NC(=O)C1=CNC(=O)C[C@H]1c1ccc(F)cc1` [Compound 133, (S)-4-(4-Fluoro-phenyl)-6-oxo-1,4,5,6-tetrahydro-pyridine-3-carboxylic acid [2-methyl-5-(3-methyl-2,4-dioxo-3,4-dihydro-2H-pyrimidin-1-yl)-phenyl]-amide], the pIC50 stood at 7.24.

For the compound `Cc1ccc(-n2ccc(=O)[nH]c2=O)cc1NC(=O)C1=CN(C)C(=O)C[C@H]1c1ccc(F)cc1` [Compound 124, (S)-4-(4-Fluoro-phenyl)-1-methyl-6-oxo-1,4,5,6-tetrahydro-pyridine-3-carboxylic acid [5-(2,4-dioxo-3,4-dihydro-2H-pyrimidin-1-yl)-2-methyl-phenyl]-amide], the pIC50 stood at 6.44. In turn, `Cc1cc(F)c(-c2cc(C)n(CCO)n2)cc1NC(=O)C1=CN(C)C(=O)C[C@H]1c1ccc(F)cc1` [Compound 148, (S)-4-(4-Fluoro-phenyl)-1-methyl-6-oxo-1,4,5,6-tetrahydro-pyridine-3-carboxylic acid {4-fluoro-5-[1-(2-hydroxy-ethyl)-5-methyl-1H-pyrazol-3-yl]-2-methyl-phenyl}-amide] showed a pIC50 of 7.41.

These data come from US8163929B2, “Dihydropyridone amides as P2X7 modulators” (Roche Palo Alto LLC, priority 2008, dated 2012).
